In general, DC50 refers to the midpoint of the concentration-degradation curve. Read a high DC50 as a less potent degrader.

The assay addresses T1, IRAK4 (Homo sapiens, UniProt Q9NWZ3).
T1 sequence (Q9NWZ3 1-460): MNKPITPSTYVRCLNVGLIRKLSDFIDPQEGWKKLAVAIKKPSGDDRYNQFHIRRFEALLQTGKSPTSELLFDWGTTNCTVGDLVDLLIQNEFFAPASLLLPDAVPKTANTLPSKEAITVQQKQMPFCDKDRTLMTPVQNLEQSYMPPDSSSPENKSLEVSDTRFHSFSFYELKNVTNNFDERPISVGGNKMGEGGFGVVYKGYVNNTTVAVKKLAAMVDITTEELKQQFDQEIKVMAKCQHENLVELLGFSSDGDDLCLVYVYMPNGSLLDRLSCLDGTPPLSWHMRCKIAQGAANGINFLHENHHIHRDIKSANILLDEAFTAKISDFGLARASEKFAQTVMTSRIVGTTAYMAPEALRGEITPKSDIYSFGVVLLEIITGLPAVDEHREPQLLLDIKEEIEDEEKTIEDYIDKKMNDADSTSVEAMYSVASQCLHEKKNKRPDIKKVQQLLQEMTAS
Nature of the assay: OCI-LY-10 MSD assay for IRAK4 DC50. The following applies: OCI-LY10 cells, 4 hr incubation, concentration required to degrade 50% of protein. Type of assay: cell-based. Also on record: endogenous in cells; host or cells: OCI-LY10. The protocol:
A MSD assay was run to determine the concentration of compound required to degrade 50% of protein (DC50).
Day 1 • Compounds were reconstituted to 10 mM in stock solutions. The stock solutions were diluted to 5 mM and 45 μL of each dilution was transferred to a 384 pp-plate. A 3 fold, 8-point serial dilution was performed by transferring 15 μL of compound into 30 μL DMSO using Janus. • 20 nL of each compounds were added into each well of a 96-well plate (Corning3799). • OCI-Ly10 cells were seeded into the 96-well plate at 3.0*10e^5 cells/100 μL/well. • The cell plate was shaken at 720 rpm for 5 min and incubated for 4 hr. • The 100 μL of cells were transferred into the 96-PCR plate and spun down at high speed for 5 mins. • The supernatant was discarded and 100 μL of RIPA lysis buffer with proteinase inhibitors was added per well. The plate was then sealed and shaken at 600 rpm and 4° C. for about 20 min. • The plate was then spun down at high speed (about 3200 g) for 30 min and then frozen in a −80° C. fridge. • A bare MSD plate (L15XA-3) was coated with 2 μg/mL of capture antibody (mouse Anti-IRAK4 antibody [2H9], ab119942) in PBS to 40 μL/well and incubated overnight at 4° C.
Day 2 • The MSD coated plate was washed 3× (150 μL/well) with 1×TBST (CST #9997S). • The MSD plate was then blocked with 150 μL of blocking buffer [3% Blocker A (MSD, R93BA-4) in TBST]/well and shaken for 1 hr at R^† and 600 rpm. • The MSD plate was washed 3× (150 μL/well) with 1×TBST. The sample RIPA lysates were then added to the MSD plate (50 μL/well) and shaken for 1 hr at R^† and 600 rpm. • The MSD plate was washed 3× (150 μL/well) with 1×TBST and the primary detection antibody (Rabbit Anti-IRAK4 antibody [Y279], ab32511) was added to a final concentration of 1 μg/ml with 25 μL/well. The plate was then shaken for 1 hr at RT and 600 rpm. • The MSD plate was washed 3× (150 μL/well) with 1×TBST and the secondary detection antibody, SULFO-TAG anti-species antibody (Anti Rabbit Antibody (R32AB-5) MSD, R32AB-1) was added to a volume of 25 μL/well at a final concentration of 1 jag/ml. The plate was then shaken for 1 hr at RT and 600 rpm. • The MSD plate was then washed 3× (150 μL/well) with 1×TBST. • lx MSD reading buffer was then added (150 μL/well) and the plate was diluted with 4× water. (MSD, R92TC-2) • The MSD instrument was then read.
Data Analysis • The remaining activity was calculated following the formula below:
Calculate • The DC50 was calculated by fitting the Curve using Xlfit (v5.3.1.3), equation 201: Y=Bottom+(Top−Bottom)/(1+10^((Log IC50−X)*HillSlope))
OCI-LY-10 DC50 results. The letter codes for IRAK4 DC50 indicate the concentration of compound required to degrade 50% of protein: A (<0.05 μM), B (0.05-0.1 μM), C (0.1-0.5 μM), D (0.5-1.0 μM), and E (>1.0 μM).
The compound `Cn1cc(NC(=O)c2coc(-c3cccnc3NCCOCCOCCOCCNc3cccc4c3C(=O)N(C3CCC(=O)NC3=O)C4=O)n2)c(C(F)F)n1` (stereo not shown) [I-432, N-[3-(difluoromethyl)-1-methyl-pyrazol-4-yl]-2-[2-[2-[2-[2-[2-[[2-(2,6-dioxo-3-piperidyl)-1,3-dioxo-isoindolin-4-yl]amino]ethoxy]ethoxy]ethoxy]ethylamino]-3-pyridyl]oxazole-4-carboxamide] displayed a DC50 of over 1000 nM.
`NC(=O)c1nn(-c2ccc(CNCCCOCCCNc3cccc4c3C(=O)N(C3CCC(=O)NC3=O)C4=O)cc2)cc1NC(=O)c1coc(-c2ccnc(NCC3CC3)c2)n1` (stereo not shown) [I-399] gave a DC50 of under 50 nM.
Compound `O=C1CCC(N2C(=O)c3cccc(NCCCCNCCCNC(=O)c4ccc(-n5cc(NC(=O)c6coc(-c7ccnc(NCC8CC8)c7)n6)c(C(F)(F)F)n5)cc4)c3C2=O)C(=O)N1` (stereo not shown) [I-218] registered a DC50 of over 1000 nM.
To `CN[C@@H](C)C(=O)N[C@H](C(=O)N1CCC[C@H]1c1nc(C(=O)c2cccc(OCCOCCOCCOCCNCc3ccc(-n4cc(NC(=O)c5coc(-c6ccnc(NCC7CC7)c6)n5)c(C(F)F)n4)cc3)c2)cs1)C1CCCCC1` [I-554] belongs over 1000 nM; to `Cc1ncsc1-c1ccc(CNC(=O)[C@@H]2C[C@@H](O)CN2C(=O)[C@@H](NCCOCCOCCOCCNCc2nn(C)cc2NC(=O)c2coc(-c3ccnc(NCC(F)(F)F)c3)n2)C(C)(C)C)cc1` [I-413], over 1000 nM.
`O=C1CCC(N2C(=O)c3cccc(NCCOCCOCCNCc4ccc(-n5cc(NC(=O)c6coc(-c7ccnc(NCC(F)(F)F)c7)n6)c(CCCO)n5)cc4)c3C2=O)C(=O)N1` (stereo not shown) [I-402] came in with a DC50 of over 1000 nM.
`Cn1c(=O)n(C2CCC(=O)NC2=O)c2ccc(CCCOCCOCCOCCOCC(=O)N3CCN(C4CCC(Nc5ncnc6[nH]cc(C7CCOCC7)c56)CC4)CC3)cc21` (stereo not shown) [I-447, 3-[3-Methyl-2-oxo-5-[3-[2-[2-[2-[2-oxo-2-[4-[4-[(5-tetrahydropyran-4-yl-7H-pyrrolo[2,3-d]pyrimidin-4-yl)amino]cyclohexyl]piperazin-1-yl]ethoxy]ethoxy]ethoxy]ethoxy]propyl]benzimidazol-1-yl]piperidine-2,6-dione] yielded a DC50 of 50 to 100 nM.
Turning to `Cn1c(=O)n(C2CCC(=O)NC2=O)c2cccc(CCCOCCOCCOCCOCC(=O)N3CCN(C4CCC(Nc5ncnc6[nH]cc(C7CCOCC7)c56)CC4)CC3)c21` (stereo not shown) [I-444, 3-[3-Methyl-2-oxo-4-[3-[2-[2-[2-[2-oxo-2-[4-[4-[(5-tetrahydropyran-4-yl-7H-pyrrolo[2,3-d]pyrimidin-4-yl)amino]cyclohexyl]piperazin-1-yl]ethoxy]ethoxy]ethoxy]ethoxy]propyl]benzimidazol-1-yl]piperidine-2,6-dione], the DC50 lay in the range of 50 to 100 nM.
On to `Cc1ncsc1-c1ccc(CNC(=O)[C@@H]2C[C@@H](O)CN2C(=O)[C@@H](NCCOCCOCCOCCNC(=O)C2CCC(n3cc(NC(=O)c4coc(-c5ccnc(NCC(F)(F)F)c5)n4)c(C(N)=O)n3)CC2)C(C)(C)C)cc1` (stereo partly shown) [I-293], for which the DC50 was over 1000 nM.
As to `Cn1c(=O)n(C2CCC(=O)NC2=O)c2cccc(CCCOCCCOCCCNCc3ccc(-n4cc(NC(=O)c5coc(-c6ccnc(NCC7CC7)c6)n5)c(C(F)F)n4)cc3)c21` (stereo not shown) [I-406], the DC50 is under 50 nM.
Consider `COCC(=O)N[C@H](C(=O)N1Cc2cc(OCCOCCOCCOCCNCc3ccc(-n4cc(NC(=O)c5coc(-c6ccnc(NCC7CC7)c6)n5)c(C(F)F)n4)cc3)ccc2CC1C(=O)N[C@@H]1CCCc2ccccc21)C(C)(C)C` (stereo partly shown) [I-417], for which the DC50 was over 1000 nM.
`Cn1c(=O)n(C2CCC(=O)NC2=O)c2cccc(CCCOCCOCCOCCOCC(=O)N[C@H]3CC[C@H](Nc4ncnc5[nH]cc(C6CCOCC6)c45)CC3)c21` (stereo partly shown) [I-440, 2-[2-[2-[2-[3-[1-(2,6-Dioxo-3-piperidyl)-3-methyl-2-oxo-benzimidazol-4-yl]propoxy]ethoxy]ethoxy]ethoxy]-N-[4-[(5-tetrahydropyran-4-yl-7H-pyrrolo[2,3-d]pyrimidin-4-yl)amino]cyclohexyl]acetamide] gave a DC50 of over 1000 nM.
In turn, `Cn1c(=O)n(C2CCC(=O)NC2=O)c2cccc(CCCOCCOCCNC(=O)c3ccc(-n4cc(NC(=O)c5coc(-c6ccnc(NCC(F)(F)F)c6)n5)c(C(F)F)n4)cc3)c21` (stereo not shown) [I-280] displayed a DC50 of under 50 nM.
